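96-well plates; 48 h exposure; 5 concentrations. Endpoints by linear interpolation between flanking doses. Not reached: highest tested concentration assigned. Abbreviation: GI50, concentration required for 50% inhibition of growth.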 Activity calls are given as the source filed them. No stated cut-off is given here; in the data, active = GI50 up to about 1.1 µM and inactive = higher.
What was measured:
Assay in all cases: growth of human tumour cells (NCI), 48 h
HOP-62 = system: HOP-62
SNB-19 = system: SNB-19
786-0 = system: 786-0
SW-620 = system: SW-620
IGROV-1 = system: IGROV-1
SK-OV-3 = system: SK-OV-3
ACHN = system: ACHN
T47D = system: T47D
OVCAR-8 = system: OVCAR-8
HT-29 = system: HT-29
UACC-62 = system: UACC-62
Hs-578T = system: Hs-578T
MOLT-4 = system: MOLT-4
K562 = system: K562
RPMI-8226 = system: RPMI-8226
TK-10 = system: TK-10
SK-MEL-2 = system: SK-MEL-2
COLO 205 = system: COLO 205
NCI-H226 = system: NCI-H226

Structure (SMILES)	GI50 (HOP-62)	GI50 (SNB-19)	GI50 (786-0)	GI50 (SW-620)	GI50 (IGROV-1)	GI50 (SK-OV-3)	GI50 (ACHN)	GI50 (T47D)	GI50 (OVCAR-8)	GI50 (HT-29)	GI50 (UACC-62)	GI50 (Hs-578T)	GI50 (MOLT-4)	GI50 (K562)	GI50 (RPMI-8226)	GI50 (TK-10)	GI50 (SK-MEL-2)	GI50 (COLO 205)	GI50 (NCI-H226)
Cc1cnoc1NS(=O)(=O)c1ccc(Nc2nnc(/C=C/c3c(O)ccc4ccccc34)c(=O)n2N)cc1	46 µM (inactive)	65.2 µM (inactive)	35.1 µM (inactive)	32.7 µM (inactive)	12.8 µM (inactive)	56.1 µM (inactive)	22.2 µM (inactive)	20.1 µM (inactive)	16.4 µM (inactive)	58.6 µM (inactive)	24.5 µM (inactive)	29.2 µM (inactive)	0.658 µM (active)	24.2 µM (inactive)	20.2 µM (inactive)				
CC[C@@H]([C@H](O)c1ccccc1Cl)[N+](=O)[O-]	54.6 µM (inactive)	> 100 µM (inactive)	> 100 µM (inactive)	42.9 µM (inactive)	> 100 µM (inactive)	> 100 µM (inactive)	> 100 µM (inactive)	> 100 µM (inactive)	> 100 µM (inactive)	> 100 µM (inactive)	> 100 µM (inactive)	> 100 µM (inactive)			91.8 µM (inactive)	> 100 µM (inactive)	> 100 µM (inactive)	> 100 µM (inactive)	> 100 µM (inactive)
CCCc1c2c3ccccc3nc-2nc2ccccn12	25.4 µM (inactive)	> 100 µM (inactive)	28.4 µM (inactive)	36.4 µM (inactive)	63.5 µM (inactive)	> 100 µM (inactive)	46.7 µM (inactive)	> 100 µM (inactive)	71.8 µM (inactive)	43.6 µM (inactive)	72.3 µM (inactive)	> 100 µM (inactive)	67.5 µM (inactive)	52.6 µM (inactive)	41.9 µM (inactive)	52.7 µM (inactive)	> 100 µM (inactive)	97.7 µM (inactive)	
CC(O)CCCOC(c1ccccc1)(c1ccccc1)c1ccccc1 (stereo not given)	17.3 µM (inactive)	16 µM (inactive)	16.5 µM (inactive)	16.6 µM (inactive)	15.7 µM (inactive)	16.6 µM (inactive)	14.6 µM (inactive)		14.7 µM (inactive)	13.2 µM (inactive)	13.9 µM (inactive)	18.7 µM (inactive)	16.6 µM (inactive)	22.9 µM (inactive)	15.2 µM (inactive)	16.6 µM (inactive)	15.1 µM (inactive)	20.1 µM (inactive)	16.1 µM (inactive)
O=c1oc2ccccc2n1CCCn1c(=O)oc2ccccc21	> 100 µM (inactive)	> 100 µM (inactive)	> 100 µM (inactive)	> 100 µM (inactive)	> 100 µM (inactive)	> 100 µM (inactive)	92.5 µM (inactive)		> 100 µM (inactive)	> 100 µM (inactive)	> 100 µM (inactive)	> 100 µM (inactive)	> 100 µM (inactive)	> 100 µM (inactive)	> 100 µM (inactive)	> 100 µM (inactive)	> 100 µM (inactive)	> 100 µM (inactive)	> 100 µM (inactive)
Cc1ccc2c(c1)C(=O)N1CCC[C@H]1C=N2	27.7 µM (inactive)	28.2 µM (inactive)	27.1 µM (inactive)	23.4 µM (inactive)	14.3 µM (inactive)	42 µM (inactive)	15 µM (inactive)	18.4 µM (inactive)	23.9 µM (inactive)	15.4 µM (inactive)	16.6 µM (inactive)	15.3 µM (inactive)	18.8 µM (inactive)	7.76 µM (inactive)	10.1 µM (inactive)	20.5 µM (inactive)	17.5 µM (inactive)	17.6 µM (inactive)	
CCOC(=O)/C(C#N)=C/c1coc2cc(C)cc(C)c2c1=O	> 100 µM (inactive)	> 100 µM (inactive)	> 100 µM (inactive)	> 100 µM (inactive)	> 100 µM (inactive)	> 100 µM (inactive)	> 100 µM (inactive)	> 100 µM (inactive)	> 100 µM (inactive)	> 100 µM (inactive)	> 100 µM (inactive)	> 100 µM (inactive)	> 100 µM (inactive)	> 100 µM (inactive)	> 100 µM (inactive)	> 100 µM (inactive)		> 100 µM (inactive)	> 100 µM (inactive)
COC(=O)NC1(NC(=O)OC)NC(=O)c2cc(OC)c(OC)cc2N1	3.14 µM (inactive)	55.5 µM (inactive)	32.6 µM (inactive)	42.6 µM (inactive)	32.1 µM (inactive)		64 µM (inactive)	39.4 µM (inactive)	65.6 µM (inactive)		30.1 µM (inactive)	29.4 µM (inactive)		34.2 µM (inactive)	32.5 µM (inactive)	> 100 µM (inactive)	19 µM (inactive)	20.2 µM (inactive)	
Cc1ccc(S(=O)(=O)OC2CCN(C)CC2)cc1	> 100 µM (inactive)	> 100 µM (inactive)	> 100 µM (inactive)	20.1 µM (inactive)	> 100 µM (inactive)	> 100 µM (inactive)	32.6 µM (inactive)	23.1 µM (inactive)	> 100 µM (inactive)	> 100 µM (inactive)	> 100 µM (inactive)	> 100 µM (inactive)	18.3 µM (inactive)	19.3 µM (inactive)	23.2 µM (inactive)	> 100 µM (inactive)	> 100 µM (inactive)	21.7 µM (inactive)	
C=CC1ON(C)CCc2cc(OC)c(OC)cc21 (stereo not given)	> 100 µM (inactive)	> 100 µM (inactive)	> 100 µM (inactive)	> 100 µM (inactive)	> 100 µM (inactive)		> 100 µM (inactive)	83.2 µM (inactive)	> 100 µM (inactive)	> 100 µM (inactive)	65.6 µM (inactive)	> 100 µM (inactive)	> 100 µM (inactive)	> 100 µM (inactive)	> 100 µM (inactive)	> 100 µM (inactive)		> 100 µM (inactive)	> 100 µM (inactive)
Cc1cc(C)c2c(=O)n(CC(O)CN3CCN(CCOCCO)CC3)sc2n1 (stereo not given)	28.4 µM (inactive)	36.5 µM (inactive)	16.9 µM (inactive)	25.6 µM (inactive)	43.9 µM (inactive)	26.4 µM (inactive)	20 µM (inactive)	19.1 µM (inactive)	19.9 µM (inactive)	19.1 µM (inactive)	18.7 µM (inactive)	28.5 µM (inactive)	24.5 µM (inactive)	37.3 µM (inactive)		17.5 µM (inactive)	19.7 µM (inactive)	17.7 µM (inactive)	> 100 µM (inactive)
CC(=O)O[C@H]1C(=O)[C@@]2(C)C(C(OC(=O)c3ccccc3)[C@]3(O)CC(OC(=O)C(O)C(NC(=O)c4ccccc4)c4ccc(F)cc4)C(C)=C1C3(C)C)[C@]1(OC(C)=O)CO[C@@H]1C[C@@H]2O (stereo not given in full)	0.00233 µM (active)	0.00252 µM (active)	0.00152 µM (active)	< 0.001 µM (active)	0.00365 µM (active)	0.00371 µM (active)	0.0139 µM (active)	0.00966 µM (active)	0.00164 µM (active)	< 0.001 µM (active)	0.00138 µM (active)	< 0.001 µM (active)	0.00359 µM (active)	< 0.001 µM (active)	< 0.001 µM (active)	0.0296 µM (active)	0.00133 µM (active)	< 0.001 µM (active)	
C=C(C(N)=O)c1ccc([N+](=O)[O-])o1	22.8 µM (inactive)	37.1 µM (inactive)	11.2 µM (inactive)	5.81 µM (inactive)	10.6 µM (inactive)	30.8 µM (inactive)	2.89 µM (inactive)	20.5 µM (inactive)	2.9 µM (inactive)	11.9 µM (inactive)	7.03 µM (inactive)	36.4 µM (inactive)	3.84 µM (inactive)	3.61 µM (inactive)		14.1 µM (inactive)	5.93 µM (inactive)	3.31 µM (inactive)	20.3 µM (inactive)
COCOc1cc(OC)c(Br)cc1C/C(=N/O)C(=O)OC	67.3 µM (inactive)	> 100 µM (inactive)	> 100 µM (inactive)	> 100 µM (inactive)	56.4 µM (inactive)	> 100 µM (inactive)	> 100 µM (inactive)	15.8 µM (inactive)	> 100 µM (inactive)	> 100 µM (inactive)	40.6 µM (inactive)	15.9 µM (inactive)	27.5 µM (inactive)	49.7 µM (inactive)		35.1 µM (inactive)	88.5 µM (inactive)	> 100 µM (inactive)	> 100 µM (inactive)
O=C(O)CCc1c2ccc(=O)c(O)c-2oc2c(O)c(O)ccc12	> 100 µM (inactive)	> 100 µM (inactive)	19.4 µM (inactive)	22.2 µM (inactive)	> 100 µM (inactive)	> 100 µM (inactive)	39.1 µM (inactive)	> 100 µM (inactive)	54.6 µM (inactive)	> 100 µM (inactive)	> 100 µM (inactive)	14.2 µM (inactive)	23.3 µM (inactive)	24 µM (inactive)	32 µM (inactive)	> 100 µM (inactive)	> 100 µM (inactive)	> 100 µM (inactive)	
[O-][N+]1=C2CCC/C(=N/O)C2(O)C2CCCCC21N1CCOCC1 (stereo not given)	> 100 µM (inactive)	> 100 µM (inactive)	> 100 µM (inactive)	> 100 µM (inactive)	> 100 µM (inactive)	> 100 µM (inactive)	> 100 µM (inactive)	> 100 µM (inactive)	> 100 µM (inactive)	> 100 µM (inactive)	> 100 µM (inactive)	> 100 µM (inactive)	> 100 µM (inactive)	> 100 µM (inactive)		> 100 µM (inactive)	> 100 µM (inactive)	> 100 µM (inactive)	> 100 µM (inactive)

From ChEMBL document CHEMBL1201862, “PubChem BioAssay data set” (2004)
